Test results from US12622948B2 (SUN PHARMACEUTICAL INDUSTRIES LIMITED, priority 2020, dated 2026).
Marks after values point to notes of the source that are not given here. Starred links: 1 amine or outer side, 2 acyl side, 3 side chain; linkers in the order of their positions; H or OH if unused. Non-standard residues stand in square brackets, D forms with d. Residues, ends and D or L forms follow the SMILES beside them. Groups on a side chain read outwards from the residue. *: point of attachment. C20 diacid = O=C(O)CCCCCCCCCCCCCCCCCCC(=O)*; γGlu = O=C(O)[C@H](CCC(=O)[*:2])N[*:1]; AEEA = NCCOCCOCC(=O)O; Aib = CC(C)(N)C(=O)O

System: type 2 diabetic mouse (db/db) model
Experiment: Efficacy study in db/db mice at 10 nM/kg dose (blood glucose, body weight, food intake)
Type: in vivo
Settings: for Cumulative food Intake (g) 0-48 hr. vs. Baseline, Mean / Cumulative food Intake (g) 0-96 hr. vs. Baseline, Mean / Delta Blood Glucose (mM) Mean / Body Wt. Change (%) 48 hr. vs. Baseline, Mean / Body Wt. Change (%) 96 hr. vs. Baseline, Mean: 10 nM/kg s.c. single dose; for blood glucose reduction / body weight reduction / reduction in food consumption: db/db mice, 10 nM/kg s.c., vs diabetic control
Protocol: The effect of compounds of present invention on blood glucose, food intake and body weight was studied in mice. This study was performed in a type 2 diabetic mouse (db/db) model. […] Baseline blood glucose was measured from all the animals. […] All the animals were administered with test items subcutaneously. […] Delta blood glucose (mM) was calculated.

[1] = Study 2, db/db mice, 0 hr (baseline)
[2] = Study 4, db/db mice, 0 hr (baseline)

| Compound | Cumulative food Intake (g) 0-48 hr. vs. Baseline, Mean (Study 2, db/db mice) | Cumulative food Intake (g) 0-96 hr. vs. Baseline, Mean (Study 2, db/db mice) | Delta Blood Glucose (mM) Mean [1] [mM] | Delta Blood Glucose (mM) Mean (Study 2, db/db mice, 4 hr) | Delta Blood Glucose (mM) Mean (Study 2, db/db mice, 8 hr) | Delta Blood Glucose (mM) Mean (Study 2, db/db mice, 12 hr) | Delta Blood Glucose (mM) Mean (Study 2, db/db mice, 24 hr) | Body Wt. Change (%) 48 hr. vs. Baseline, Mean (Study 2, db/db mice, 48 hr) | Delta Blood Glucose (mM) Mean (Study 2, db/db mice, 48 hr) | Delta Blood Glucose (mM) Mean (Study 2, db/db mice, 72 hr) | Body Wt. Change (%) 96 hr. vs. Baseline, Mean (Study 2, db/db mice, 96 hr) | Delta Blood Glucose (mM) Mean (Study 2, db/db mice, 96 hr) [mM] | blood glucose reduction | body weight reduction | reduction in food consumption | Cumulative food Intake (g) 0-48 hr. vs. Baseline, Mean (Study 4, db/db mice) | Cumulative food Intake (g) 0-96 hr. vs. Baseline, Mean (Study 4, db/db mice) | Delta Blood Glucose (mM) Mean [2] [mM] | Delta Blood Glucose (mM) Mean (Study 4, db/db mice, 4 hr) | Delta Blood Glucose (mM) Mean (Study 4, db/db mice, 8 hr) | further results |
| --- | --- | --- | --- | --- | --- | --- | --- | --- | --- | --- | --- | --- | --- | --- | --- | --- | --- | --- | --- | --- | --- |
| CC[C@H](C)[C@H](NC(=O)[C@H](CCCCN)NC(=O)[C@H](CC(=O)O)NC(=O)[C@H](CC(C)C)NC(=O)[C@H](CC(C)C)NC(=O)[C@@H](NC(=O)[C@H](CO)NC(=O)[C@H](Cc1ccc(O)cc1)NC(=O)[C@H](CC(=O)O)NC(=O)[C@H](CO)NC(=O)[C@@H](NC(=O)[C@H](Cc1ccccc1)NC(=O)[C@@H](NC(=O)CNC(=O)[C@H](CCC(=O)O)NC(=O)C(C)(C)NC(=O)[C@@H](N)Cc1ccc(O)cc1)[C@@H](C)O)[C@@H](C)O)[C@@H](C)CC)C(=O)N[C@@H](C)C(=O)N[C@@H](CCC(N)=O)C(=O)N[C@@H](CCCCNC(=O)COCCOCCNC(=O)C(C)(C)NC(=O)CC[C@H](NC(=O)CCCCCCCCCCCCCCCCCCC(=O)O)C(=O)O)C(=O)N[C@@H](C)C(=O)N[C@@H](Cc1ccccc1)C(=O)N[C@H](C(=O)N[C@@H](CCC(N)=O)C(=O)N[C@@H](Cc1c[nH]c2ccccc12)C(=O)N[C@@H](CC(C)C)C(=O)N[C@H](C(=O)N[C@@H](C)C(=O)NCC(=O)NCC(=O)N1CCC[C@H]1C(=O)N[C@@H](CO)C(=O)N[C@@H](CO)C(=O)NCC(=O)N[C@@H](C)C(=O)N1CCC[C@H]1C(=O)N1CCC[C@H]1C(=O)N1CCC[C@H]1C(=O)N[C@@H](CO)C(N)=O)[C@@H](C)CC)C(C)C [Compound 3] (H-Y[Aib]EGTFTSDYSILLDKIAQK([AEEA-Aib-γGlu-C20 diacid])AFVQWLIAGGPSSGAPPPS-NH2) | 6.0*** g | 16.0*** g | 0 | −10.3*** mM | −13.9*** mM | −15.8*** mM | −10.9*** mM | −5.6*** % | −6.6*** mM | 0.1 mM | −4.9*** % | -0.7 | statistically significant blood glucose reduction upto 96 hr post treatment | statistically significant reduction in food intake and body weight | statistically significant reduction in food intake |  |  |  |  |  |  |
| CCC[C@H](NC(=O)[C@@H](NC(=O)[C@H](CO)NC(=O)[C@H](Cc1ccc(O)cc1)NC(=O)[C@H](CC(=O)O)NC(=O)[C@H](CO)NC(=O)[C@@H](NC(=O)[C@H](Cc1ccccc1)NC(=O)[C@@H](NC(=O)CNC(=O)[C@H](CCC(=O)O)NC(=O)C(C)(C)NC(=O)[C@@H](N)Cc1ccc(O)cc1)[C@@H](C)O)[C@@H](C)O)[C@@H](C)CC)C(=O)N[C@@H](CC(C)C)C(=O)N[C@@H](CC(=O)O)C(=O)N[C@@H](CCCCN)C(=O)N[C@H](C(=O)N[C@@H](C)C(=O)N[C@@H](CCC(N)=O)C(=O)N[C@@H](CCCCNC(=O)COCCOCCNC(=O)COCCOCCNC(=O)CC[C@H](NC(=O)CCCCCCCCCCCCCCCCCCC(=O)O)C(=O)O)C(=O)N[C@@H](C)C(=O)N[C@@H](Cc1ccccc1)C(=O)N[C@H](C(=O)N[C@@H](CCC(N)=O)C(=O)N[C@@H](Cc1c[nH]c2ccccc12)C(=O)N[C@@H](CC(C)C)C(=O)N[C@H](C(=O)N[C@@H](C)C(=O)NCC(=O)NCC(=O)N1CCC[C@H]1C(=O)N[C@@H](CO)C(=O)N[C@@H](CO)C(=O)NCC(=O)N[C@@H](C)C(=O)N1CCC[C@H]1C(=O)N1CCC[C@H]1C(=O)N1CCC[C@H]1C(=O)N[C@@H](CO)C(N)=O)[C@@H](C)CC)C(C)C)[C@@H](C)CC [Compound 6] | 4.2*** g | 16.0*** g | 0 | −15.6*** mM | −15.9*** mM | −16.3*** mM | −11.8*** mM | −5.5*** % | −9.5*** mM | −2.6* mM | −2.2** % | -1.6 | statistically significant blood glucose reduction upto 96 hr post treatment | statistically significant reduction in food intake and body weight | statistically significant reduction in food intake |  |  |  |  |  |  |
| CC[C@H](NC(=O)[C@@H](NC(=O)[C@H](CO)NC(=O)[C@H](Cc1ccc(O)cc1)NC(=O)[C@H](CC(=O)O)NC(=O)[C@H](CO)NC(=O)[C@@H](NC(=O)[C@H](Cc1ccccc1)NC(=O)[C@@H](NC(=O)CNC(=O)[C@H](CCC(=O)O)NC(=O)C(C)(C)NC(=O)[C@@H](N)Cc1ccc(O)cc1)[C@@H](C)O)[C@@H](C)O)[C@@H](C)CC)C(=O)N[C@@H](CC(C)C)C(=O)N[C@@H](CC(=O)O)C(=O)N[C@@H](CCCCN)C(=O)N[C@H](C(=O)N[C@@H](C)C(=O)N[C@@H](CCC(N)=O)C(=O)N[C@@H](CCCCNC(=O)COCCOCCNC(=O)C(C)(C)NC(=O)CC[C@H](NC(=O)CCCCCCCCCCCCCCCCCCC(=O)O)C(=O)O)C(=O)N[C@@H](C)C(=O)N[C@@H](Cc1ccccc1)C(=O)N[C@H](C(=O)N[C@@H](CCC(N)=O)C(=O)N[C@@H](Cc1c[nH]c2ccccc12)C(=O)N[C@@H](CC(C)C)C(=O)N[C@H](C(=O)N[C@@H](C)C(=O)NCC(=O)NCC(=O)N1CCC[C@H]1C(=O)N[C@@H](CO)C(=O)N[C@@H](CO)C(=O)NCC(=O)N[C@@H](C)C(=O)N1CCC[C@H]1C(=O)N1CCC[C@H]1C(=O)N1CCC[C@H]1C(=O)N[C@@H](CO)C(N)=O)[C@@H](C)CC)C(C)C)[C@@H](C)CC [Compound 10] |  |  |  |  |  |  |  |  |  |  |  |  |  |  |  | 8.2*** g | 20.5** g | 0 | −12.1*** mM | −13.6*** mM | Delta Blood Glucose (mM) Mean (Study 4, db/db mice, 12 hr): −14.7*** mM; Delta Blood Glucose (mM) Mean (Study 4, db/db mice, 24 hr): −15.6*** mM; Body Wt. Change (%) 48 hr. vs. Baseline, Mean (Study 4, db/db mice, 48 hr): −4.5*** %; Delta Blood Glucose (mM) Mean (Study 4, db/db mice, 48 hr): −4.0** mM; Delta Blood Glucose (mM) Mean (Study 4, db/db mice, 72 hr): 2.3 mM; Body Wt. Change (%) 96 hr. vs. Baseline, Mean (Study 4, db/db mice, 96 hr): −3.1*** %; Delta Blood Glucose (mM) Mean (Study 4, db/db mice, 96 hr): 1.7 mM |
| CCCC[C@H](NC(=O)[C@@H](NC(=O)[C@H](CO)NC(=O)[C@H](Cc1ccc(O)cc1)NC(=O)[C@H](CC(=O)O)NC(=O)[C@H](CO)NC(=O)[C@@H](NC(=O)[C@H](Cc1ccccc1)NC(=O)[C@@H](NC(=O)CNC(=O)[C@H](CCC(=O)O)NC(=O)C(C)(C)NC(=O)[C@@H](N)Cc1ccc(O)cc1)[C@@H](C)O)[C@@H](C)O)[C@@H](C)CC)C(=O)N[C@@H](CC(C)C)C(=O)N[C@@H](CC(=O)O)C(=O)N[C@@H](CCCCN)C(=O)N[C@H](C(=O)N[C@@H](C)C(=O)N[C@@H](CCC(N)=O)C(=O)N[C@@H](CCCCNC(=O)COCCOCCNC(=O)C(C)(C)NC(=O)CC[C@H](NC(=O)CCCCCCCCCCCCCCCCCCC(=O)O)C(=O)O)C(=O)N[C@@H](C)C(=O)N[C@@H](Cc1ccccc1)C(=O)N[C@H](C(=O)N[C@@H](CCC(N)=O)C(=O)N[C@@H](Cc1c[nH]c2ccccc12)C(=O)N[C@@H](CC(C)C)C(=O)N[C@H](C(=O)N[C@@H](C)C(=O)NCC(=O)NCC(=O)N1CCC[C@H]1C(=O)N[C@@H](CO)C(=O)N[C@@H](CO)C(=O)NCC(=O)N[C@@H](C)C(=O)N1CCC[C@H]1C(=O)N1CCC[C@H]1C(=O)N1CCC[C@H]1C(=O)N[C@@H](CO)C(N)=O)[C@@H](C)CC)C(C)C)[C@@H](C)CC [Compound 11] |  |  |  |  |  |  |  |  |  |  |  |  |  |  |  | 8.2*** g | 21.7* g | 0 | −13.3*** mM | −13.3*** mM | Delta Blood Glucose (mM) Mean (Study 4, db/db mice, 12 hr): −13.6*** mM; Delta Blood Glucose (mM) Mean (Study 4, db/db mice, 24 hr): −15.4*** mM; Body Wt. Change (%) 48 hr. vs. Baseline, Mean (Study 4, db/db mice, 48 hr): −4.7*** %; Delta Blood Glucose (mM) Mean (Study 4, db/db mice, 48 hr): −6.1*** mM; Delta Blood Glucose (mM) Mean (Study 4, db/db mice, 72 hr): 3.6 mM; Body Wt. Change (%) 96 hr. vs. Baseline, Mean (Study 4, db/db mice, 96 hr): −2.0*** %; Delta Blood Glucose (mM) Mean (Study 4, db/db mice, 96 hr): 6 mM |
